The term LD50 denotes the dose expected to kill half of the subjects tested.

The values that follow come from patent US4416891A, “Ester of 6-[(hexahydro-1H-azepin-1-yl)methyleneamino]penicillanic acid, and its use as antibacterial agent” (priority 1981, dated 1983).

In series [1] the test system is Gram-negative bacteria, especially Escherichia coli and Klebsiella pneumoniae. As to conditions: compared with Gram-positive bacteria; cited from earlier work.
The conditions of series [2]: cited from earlier work.
The conditions of series [3]: oral, man, 400 mg; cited from earlier work.
The nature of series [4]: Stability in an artificial intestinal juice (bioautography). In kind it is in vitro ADME. As to conditions: pH about 6.8, 37° C. The protocol:
Stability in an artificial intestinal juice
(§1) (b) Experimental procedure
A test solution was prepared in the same way as in Test Example 1, (b), (1) except that the artificial intestinal juice described in The Pharmacopoeia of Japan, 10th edition (having a pH of about 6.8 and prepared by adding water to 250 ml of a 0.2 M aqueous solution of potassium dihydrogen phosphate and 118 ml of a 0.2 N aqueous solution of sodium hydroxide to form a solution having a total volume of 1000 ml) was used instead of the artificial gastric juice.
Performed in the same way as in Test Example 1, (b), (2).

Series [5] in a line: Toxicity test: acute toxicity (LD50) in oral administration. Particulars: mouse, in vivo, male ddY-strain mice, five per group. The source says: The acute toxicity (LD50) of compound (I).HCl.H2 O and Pivmecillinam.HCl in oral administration was examined by using male ddY-strain mice (body weight 22 to 25 g; five per group).
Series [6] can be described thus: Stability in an artificial gastric juice (bioautography). The class given is in vitro ADME. As to conditions: pH about 1.2, 37° C. The protocol: Stability in an artificial gastric juice
(5-methyl-2-oxo-1,3-dioxolen-4-yl)methyl 6-[(hexahydro-1H-azepin-1-yl)methleneamino]penicillanate hydrochloride monohydrate [compound (I).HCl.H2 O]
as §1
A solution of 2 mg of compound (I).HCl.H2 O in 0.2 ml of dimethyl sulfoxide was added to 3.8 ml of the artificial gastric juice described in The Pharmacopoeia of Japan, 10th edition (having a pH of about 1.2 and prepared by adding 24.0 ml of 10% HCl to 2.0 g of sodium chloride and adding water to adjust the total amount to 1000 ml). The solution was maintained at 37° C., and bioautographed as shown below after the lapse of 10 minutes, 30 minutes, and 50 minutes, respectively.
(i) The test solution was spotted on a cellulose plate [Cellulose F (Art 5718 supplied by Merck & Co.)] for thin-layer chromatography, and developed with the upper layer of a mixture of n-butanol, ethanol and water in a ratio of 4:1:5. The plate was dried in the air, and a 10% aqueous solution of mouse serum was sprayed onto the plate. […]
(iv) After the cultivation, the position (Rf value) of an inhibitory zone on the plate against E. coli NIHJ was determined. From this Rf value and Rf values of compound (I).HCl.H2 O and Mecillinam (X) separately determined under the same conditions as in (i) to (iii) above, the compound in the test solution was identified. […]

The nature of series [7]: Stability in mouse serum (bioautography). In kind it is in vitro ADME. As to conditions: 40% mouse serum, 37° C., pH 7.4 phosphate buffer. The protocol:
as §1
4 ml of mouse serum was added to 5.6 ml of 0.1 M phosphate buffer (pH 7.4), and then a portion (0.4 ml) of a solution of 20 mg of compound (I).HCl.H2 O in 1 ml of dimethyl sulfoxide was added. The solution was kept at 37° C. for 10 minutes to form a test solution.
The test solution obtained in (1) above was subjected to the same operation as in Example 1, (b), (2).

The subject of series [8] is Escherichia coli NIHJ. The series is described as follows: Antibacterial activity in oral administration to mice (inhibitory zone of serum samples). In kind it is in vivo. As to conditions: male ddY mice, dose corresponding to 50 mg/kg of Mecillinam, average of n=4, read-out: Diameter of the inhibitory zone. The protocol:
Antibacterial activity in oral administration to mice
Compound (I).HCl.H2 O and Pivmecillinam.HCl.
as §1
Male ddY mice (6 weeks old, body weight 28±2 g) were used. They were caused to fast for 16 hours before the administration of the test compounds.
An aqueous solution (5 mg/ml) of each of the test compounds was prepared, and orally administered to mice (five per group) in a dose corresponding to 50 mg/kg of Mecillinam.
Blood samples were taken individually from five mice in each group at 30, 60 and 90 minutes after the administration of each compound. The blood samples were immediately centrifuged individually at 3,000 rpm for 15 minutes, and serum samples obtained (each in an amount of 0.2 ml) were combined to give 1 ml of serum for assaying.
(4) Measurement of antibacterial activity
0.2 ml of a suspension of Escherichia coli NIHJ as test organism was added to 5 ml of nutrient agar kept at about 48° C. to give an agar plate. The assaying serum prepared in (3) above was infiltrated into a paper disc (a thick type with a diameter of 8 mm, supplied by Toyo Filter Paper Co., Ltd.), and the paper disc was placed on the agar plate (n=4). It was maintained at 37° C. for 18 hours, and the diameter of the resulting inhibitory zone was measured with respect to each of the serum samples.
The diameter of the inhibitory zone (an average of n=4) measured with respect to each of the serum samples was as shown in Table 1.

[9] abbreviates: 0.5 h, blood letting time 30 min.
Setting [10] is: in Mus musculus, blood letting time 90 min.

SMILES strings stand for the structures. Counter-ions that a name gives are not always drawn. Like-named read-outs stand apart in the source and are kept apart here.

On to `CC1(C)S[C@@H]2[C@H](N=CN3CCCCCC3)C(=O)N2[C@H]1C(=O)O` [Mecillinam (X), 6-[(hexahydro-1H-azepin-1yl)methyleneamino]penicillanic acid], for which, in series [1], the antibacterial spectrum result is “stronger activity against Gram-negative bacteria, especially Escherichia coli and Klebsiella pneumoniae, than against Gram-positive bacteria”. For the same molecule, the “absorbability or bioavailability in oral administration” value in series [2] is listed as “low”.

For `CC(C)(C)C(=O)OCOC(=O)[C@@H]1N2C(=O)[C@@H](N=CN3CCCCCC3)[C@H]2SC1(C)C` [Pivmecillinam (X')], in series [3], the “urinary excretion after the 6 hour period” value was 45%.

For the molecule `Cc1oc(=O)oc1COC(=O)[C@@H]1N2C(=O)[C@@H](N=CN3CCCCCC3)[C@H]2SC1(C)C` [Compound (I).HCl.H2 O, (5-methyl-2-oxo-1,3-dioxolen-4-yl)methyl 6-[(hexahydro-1H-azepin-1-yl)methleneamino]penicillanate hydrochloride monohydrate], the “stability in the artificial intestinal juice” value in series [4] is “stable in the artificial intestinal juice”. The 50% lethal dose (LD50) in series [5] is 5210 mg/kg. Also, the “period of stability in the artificial gastric juice” value in series [6] is reported as “more than 50 minutes”. The “transformation to Mecillinam (X) in mouse serum” value in series [7] was “transformed to Mecillinam (X) in 40% mouse serum within ten minutes at 37 °C”. Moreover, the zone of inhibition at 50 mg/kg in series [8] (setting [9]) worked out at 23.3 mm; in series [8] (1 h, blood letting time 60 min), 20 mm; in series [8] (setting [10]), 17.2 mm.

`CC(C)(C)C(=O)OCOC(=O)[C@@H]1N2C(=O)[C@@H](N=CN3CCCCCC3)[C@H]2SC1(C)C` [Pivmecillinam.HCl]: the median lethal dose (LD50) in series [5] amounted to 3840 mg/kg. The zone of inhibition at 50 mg/kg in series [8] (setting [9]) worked out at 23.2 mm; in series [8] (1 h, blood letting time 60 min), 20.8 mm; in series [8] (setting [10]), 18 mm.
